Results taken from patent publication US7153884B2, “C-2′ methylated derivatives of paclitaxel for use as antitumour agents” (Indena S.p.A., priority 2001, dated 2006).

Experiments:
Format in all cases: cell-based
A2780tax cell line = test: Cell viability by ATP dosage (ATPlite), 72 h continuous exposure, A2780tax; settings: A2780tax cells, continuous exposure 72 hours, viable cells by ATP dosage
Protocol: (§1) Pharmacological experimentation was carried out on the compounds of the invention at a 0.1% concentration in dimethylsulfoxide. A2780wt, A2780cis, A2780adr and A2780tax cell lines were used. Cells were plated on 96 well flat bottom plates (Viewplates, Packard). After 24-hours, the culture medium was replaced and, after washing, media containing the tested compounds were added. A dose-response logarithmic curve was established in quadruplicate for each plate, starting from […]. Each assay was effected in duplicate three times. After 72 hour-culture in the presence of the tested compounds, the cells were collected and the number of viable cells was evaluated by ATP dosage, using the ATPlite kit (Packard, Meridien, Mo., USA) and the Topcount (Packard) automated luminometer. For each drug/cell line, the dose-response curve was plotted and the IC50 values were calculated from the concentration-effect curve obtained in three tests with the sigmoid-Emax model using non-linear regression, weighted by the reciprocal of the square of the predicted effect.

A2780cis cell line = test: Cell viability by ATP dosage (ATPlite), 72 h continuous exposure, A2780cis; settings: A2780cis cells, continuous exposure 72 hours, viable cells by ATP dosage
Protocol: as §1

A2780wt cell line = test: Cell viability by ATP dosage (ATPlite), 72 h continuous exposure, A2780wt; settings: A2780wt cells, continuous exposure 72 hours, viable cells by ATP dosage
Protocol: as §1

A2780adr cell line = test: Cell viability by ATP dosage (ATPlite), 72 h continuous exposure, A2780adr; settings: A2780adr cells, continuous exposure 72 hours, viable cells by ATP dosage
Protocol: as §1

Row | IC50 (A2780tax cell line) [nM] | IC50 (A2780cis cell line) [nM] | IC50 (A2780wt cell line) [nM] | IC50 (A2780adr cell line) [nM] | Molecule
1 | 160 ± 32 | 2.9 ± 0.2 | 3.7 ± 0.4 | 93.2 ± 20.4 | (2′R,3′R)-13-[N-Boc-2-methyl-3-(2-thienyl)isoserinoyl]-14β-hydroxybaccatin III 1,14-carbonate [Es. 6]
2 | 420 ± 93 | 2.9 ± 0.1 | 3.1 ± 0.2 | 61.4 ± 3.9 | CC(=O)OC1C(=O)C2(C)C(O)CC3OCC3(OC(C)=O)C2C(OC(=O)c2ccccc2)C2(O)CC(OC(=O)C(C)(O)C(NC(=O)c3ccccc3)c3ccco3)C(C)=C1C2(C)C (stereo not drawn) [Es. 1, (2′R,3′R)-3′-dephenyl-3′-(2-furyl)-2′-methyl-paclitaxel]
3 | 30.9 ± 3.7 | 2.5 ± 0.3 | 5.9 ± 0.7 | 27.1 ± 10.1 | CC(=O)O[C@H]1C(=O)[C@@]2(C)[C@H]([C@H](OC(=O)c3ccccc3)[C@]34OC(=O)O[C@H]3[C@H](OC(=O)[C@](C)(O)[C@@H](NC(=O)OC(C)(C)C)c3ccco3)C(C)=C1C4(C)C)[C@]1(OC(C)=O)CO[C@@H]1C[C@@H]2O [Es. 4, (2′R,3′R)-13-[N-Boc-2-methyl-3-(2-furanyl)isoserinoyl]-14β-hydroxybaccatin III 1,14-carbonate]
4 | 312 ± 61 | 3.3 ± 0.2 | 2.9 ± 0.1 | 41.3 ± 7.4 | CC(=O)O[C@H]1C(=O)[C@@]2(C)[C@H]([C@H](OC(=O)c3ccccc3)[C@]3(O)C[C@H](OC(=O)[C@](C)(O)[C@@H](NC(=O)OC(C)(C)C)c4ccco4)C(C)=C1C3(C)C)[C@]1(OC(C)=O)CO[C@@H]1C[C@@H]2O [Es. 3, (2′R,3′R)-13-[N-Boc-2-methyl-3-(2-furanyl)-isoserinoyl]-baccatin III]
5 | 299 ± 77 | 1.7 ± 0.4 | 2.53 ± 1.47 | 52.9 ± 16.2 | CC(=O)O[C@H]1C(=O)[C@@]2(C)[C@H]([C@H](OC(=O)c3ccccc3)[C@]34OC(=O)O[C@H]3[C@H](OC(=O)[C@](C)(O)[C@@H](NC(=O)OC(C)(C)C)c3ccccc3)C(C)=C1C4(C)C)[C@]1(OC(C)=O)CO[C@@H]1C[C@@H]2O [Es. 2, (2′R,3′S)-13-(N-Boc-2-methyl-3-phenylisoserinoyl)-14β-hydroxybaccatin III 1,14-carbonate]
6 | 285 ± 60 | 2.8 ± 0.6 | 4.64 ± 2.58 | 79.3 ± 19.9 | CC(=O)O[C@H]1C(=O)[C@@]2(C)[C@H]([C@H](OC(=O)c3ccccc3)[C@]34OC(=O)O[C@H]3[C@H](OC(=O)[C@](C)(O)[C@@H](NC(=O)OC(C)(C)C)C(F)(F)F)C(C)=C1C4(C)C)[C@]1(OC(C)=O)CO[C@@H]1C[C@@H]2O [Es. 5, (2′R,3′R)-13-[N-Boc-2-methyl-3-trifluoromethylisoserinoyl]-14β-hydroxybaccatin III 1,14-carbonate]
